Source: ChEMBL document CHEMBL1201862, “PubChem BioAssay data set” (2004)
The source made the active and inactive calls.

Key:
[1] = molecular target: Voltage-gated inwardly rectifying potassium channel KCNH2 (Homo sapiens, UniProt Q12809); details: Potency;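 also: confirmatory quantitative high-throughput screen measuring inhibition of hERG channel activity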
Cytochrome P450 3A4 = Cytochrome P450 3A4 (Homo sapiens, UniProt P08684); details: Potency;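 also: confirmatory qHTS run detecting inhibitors and substrates of CYP3A4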
Cytochrome P450 3A4, sequence (P08684 whole entry): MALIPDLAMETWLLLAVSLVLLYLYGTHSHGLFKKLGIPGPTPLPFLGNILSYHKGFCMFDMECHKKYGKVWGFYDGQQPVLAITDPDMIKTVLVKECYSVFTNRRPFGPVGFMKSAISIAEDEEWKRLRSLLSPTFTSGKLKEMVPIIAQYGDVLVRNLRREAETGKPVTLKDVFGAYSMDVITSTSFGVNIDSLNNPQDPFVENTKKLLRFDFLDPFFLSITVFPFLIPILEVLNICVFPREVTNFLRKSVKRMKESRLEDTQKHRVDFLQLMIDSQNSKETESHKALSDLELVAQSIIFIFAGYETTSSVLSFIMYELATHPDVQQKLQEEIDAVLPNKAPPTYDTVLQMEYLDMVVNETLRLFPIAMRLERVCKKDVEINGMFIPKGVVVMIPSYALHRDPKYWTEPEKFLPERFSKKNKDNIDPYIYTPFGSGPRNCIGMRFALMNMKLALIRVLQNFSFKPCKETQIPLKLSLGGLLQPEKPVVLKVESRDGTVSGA

INS1 [2] = test: protection from cytokine-induced mitochondrial depolarization, dose response, cell-based, INS-1E, JC-1 fluorescence ratio, dry powder (AID 488931); format: functional; details: Rattus norvegicus
[3] = molecular target: T1, Microphthalmia-associated transcription factor (Homo sapiens, UniProt O75030); test: TRPM1 promoter luciferase signal decrease, dose response, MITF inhibitor project, cell-based, SK-MEL-5, cherry-picked, set 3 (AID 493073); format: functional
T1 sequence (O75030 whole entry): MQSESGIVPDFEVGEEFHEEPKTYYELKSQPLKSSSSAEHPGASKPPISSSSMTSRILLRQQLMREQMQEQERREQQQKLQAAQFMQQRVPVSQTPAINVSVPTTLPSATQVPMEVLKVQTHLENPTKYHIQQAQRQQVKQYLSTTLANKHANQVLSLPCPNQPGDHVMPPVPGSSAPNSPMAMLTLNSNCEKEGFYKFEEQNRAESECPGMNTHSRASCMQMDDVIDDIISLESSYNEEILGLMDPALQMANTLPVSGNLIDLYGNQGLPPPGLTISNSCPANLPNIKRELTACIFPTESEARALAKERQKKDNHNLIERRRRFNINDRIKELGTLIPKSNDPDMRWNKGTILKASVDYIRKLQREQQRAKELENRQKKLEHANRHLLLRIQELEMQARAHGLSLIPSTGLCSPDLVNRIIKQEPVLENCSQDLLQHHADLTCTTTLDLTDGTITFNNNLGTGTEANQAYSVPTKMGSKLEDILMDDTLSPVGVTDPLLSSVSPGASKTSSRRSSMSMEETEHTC

A-375 = test: MITF: Counter assay: A375 proliferation Measured in Cell-Based System Using Plate Reader - 2084-03_Inhibitor_Dose_DryPowder_Activity. [Related pubchem assays (depositor defined):AID488944]; format: functional; details: Homo sapiens
Streptokinase A = molecular target: T2, Streptokinase A (Streptococcus pyogenes serotype M1, UniProt P10520); test: S. pyogenes streptokinase expression inhibitors, potency, dose response, plasminogen activation absorbance, OD405 (AID 1914); format: functional, Streptococcus pyogenes M1 GAS;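 also: secreted streptokinase activity via plasminogen activation per viability signal from cell pellet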
T2 sequence (P10520 whole entry): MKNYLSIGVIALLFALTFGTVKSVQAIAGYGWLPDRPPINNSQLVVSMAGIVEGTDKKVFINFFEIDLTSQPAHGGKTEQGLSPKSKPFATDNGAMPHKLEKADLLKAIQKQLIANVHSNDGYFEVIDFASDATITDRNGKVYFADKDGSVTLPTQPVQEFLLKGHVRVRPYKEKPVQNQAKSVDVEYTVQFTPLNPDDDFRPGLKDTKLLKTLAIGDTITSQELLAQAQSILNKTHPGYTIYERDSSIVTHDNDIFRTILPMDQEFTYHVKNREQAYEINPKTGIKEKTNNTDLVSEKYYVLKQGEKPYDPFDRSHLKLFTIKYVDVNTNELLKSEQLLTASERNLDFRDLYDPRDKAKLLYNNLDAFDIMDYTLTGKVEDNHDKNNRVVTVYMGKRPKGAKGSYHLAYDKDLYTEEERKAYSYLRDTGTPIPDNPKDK

[4] = inhibitors of intracellular T. cruzi replication, confirmation, NIH3T3 host cells, beta-gal luminescence (AID 2044); format: functional, cell-based;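 also: intracellular parasites grown in NIH/3T3 mouse fibroblasts as host cells; luminescent beta-galactosidase reporter signal from transgenic T. cruzi replicating inside host cells; inhibitors lower the luminescence signal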
[5] = test system: Streptococcus sp. 'group A'; test: growth inhibition of control SK(-) GAS strain, dose response, counter-screen for streptokinase expression inhibitor project, luminescence, kanamycin, BacTiterGlo, confirmation (AID 1900); format: functional, organism-based
Streptococcus = test: Group A Streptococcus viability loss, dose response, counter-screen for streptokinase expression inhibitor project, luminescence, BacTiterGlo (AID 1915); format: functional, organism-based;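 also: potency for reduction of bacterial viability or growth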
[6] = THP-1 cell cytotoxicity, dose response, cytotoxicity control for non-replicating M. tuberculosis project (AID 489025); format: functional
Beta-galactosidase = Beta-galactosidase (Escherichia coli, UniProt Q8VNN2); test: beta-galactosidase enzyme inhibitors and activators, dose response, artefact control for CCR6 antagonist project, biochemical, E. coli enzyme, set 3 (AID 504712); format: functional
Beta-galactosidase, sequence (Q8VNN2 whole entry, the tested form may be a part): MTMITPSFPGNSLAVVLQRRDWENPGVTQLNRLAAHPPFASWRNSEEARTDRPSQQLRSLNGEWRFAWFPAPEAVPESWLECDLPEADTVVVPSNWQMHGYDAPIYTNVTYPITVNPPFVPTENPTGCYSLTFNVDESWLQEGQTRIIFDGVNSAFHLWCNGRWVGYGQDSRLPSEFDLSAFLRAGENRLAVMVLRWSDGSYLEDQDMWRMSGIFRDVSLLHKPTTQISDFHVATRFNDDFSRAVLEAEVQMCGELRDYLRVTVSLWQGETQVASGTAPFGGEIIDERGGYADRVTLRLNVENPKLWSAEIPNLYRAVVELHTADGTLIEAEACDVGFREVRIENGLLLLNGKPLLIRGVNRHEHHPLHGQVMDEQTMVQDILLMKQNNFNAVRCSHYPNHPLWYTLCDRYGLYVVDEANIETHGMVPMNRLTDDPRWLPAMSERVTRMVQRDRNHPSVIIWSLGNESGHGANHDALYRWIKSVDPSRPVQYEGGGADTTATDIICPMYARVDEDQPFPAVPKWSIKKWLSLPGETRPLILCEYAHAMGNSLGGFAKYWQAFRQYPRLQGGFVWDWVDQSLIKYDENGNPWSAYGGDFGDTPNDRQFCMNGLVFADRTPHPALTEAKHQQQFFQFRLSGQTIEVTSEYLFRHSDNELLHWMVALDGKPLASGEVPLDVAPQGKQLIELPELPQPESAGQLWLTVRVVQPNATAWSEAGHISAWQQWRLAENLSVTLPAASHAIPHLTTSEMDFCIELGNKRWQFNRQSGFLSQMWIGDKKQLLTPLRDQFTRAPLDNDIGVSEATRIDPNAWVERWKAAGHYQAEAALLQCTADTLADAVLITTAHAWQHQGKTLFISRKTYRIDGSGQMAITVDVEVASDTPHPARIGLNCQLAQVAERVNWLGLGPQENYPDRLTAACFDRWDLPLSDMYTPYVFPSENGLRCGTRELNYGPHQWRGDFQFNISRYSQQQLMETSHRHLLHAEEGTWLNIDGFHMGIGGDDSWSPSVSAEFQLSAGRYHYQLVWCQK

[7] = molecular target: Nucleotide-binding oligomerization domain-containing protein 2 (Homo sapiens, UniProt Q9HC29); test: NOD2 signaling inhibitors, cell-based, luminescence, uHTS, HEK293 (AID 1566); format: functional
Nucleotide-binding oligomerization domain-containing protein 2, sequence (Q9HC29 whole entry, the tested form may be a part): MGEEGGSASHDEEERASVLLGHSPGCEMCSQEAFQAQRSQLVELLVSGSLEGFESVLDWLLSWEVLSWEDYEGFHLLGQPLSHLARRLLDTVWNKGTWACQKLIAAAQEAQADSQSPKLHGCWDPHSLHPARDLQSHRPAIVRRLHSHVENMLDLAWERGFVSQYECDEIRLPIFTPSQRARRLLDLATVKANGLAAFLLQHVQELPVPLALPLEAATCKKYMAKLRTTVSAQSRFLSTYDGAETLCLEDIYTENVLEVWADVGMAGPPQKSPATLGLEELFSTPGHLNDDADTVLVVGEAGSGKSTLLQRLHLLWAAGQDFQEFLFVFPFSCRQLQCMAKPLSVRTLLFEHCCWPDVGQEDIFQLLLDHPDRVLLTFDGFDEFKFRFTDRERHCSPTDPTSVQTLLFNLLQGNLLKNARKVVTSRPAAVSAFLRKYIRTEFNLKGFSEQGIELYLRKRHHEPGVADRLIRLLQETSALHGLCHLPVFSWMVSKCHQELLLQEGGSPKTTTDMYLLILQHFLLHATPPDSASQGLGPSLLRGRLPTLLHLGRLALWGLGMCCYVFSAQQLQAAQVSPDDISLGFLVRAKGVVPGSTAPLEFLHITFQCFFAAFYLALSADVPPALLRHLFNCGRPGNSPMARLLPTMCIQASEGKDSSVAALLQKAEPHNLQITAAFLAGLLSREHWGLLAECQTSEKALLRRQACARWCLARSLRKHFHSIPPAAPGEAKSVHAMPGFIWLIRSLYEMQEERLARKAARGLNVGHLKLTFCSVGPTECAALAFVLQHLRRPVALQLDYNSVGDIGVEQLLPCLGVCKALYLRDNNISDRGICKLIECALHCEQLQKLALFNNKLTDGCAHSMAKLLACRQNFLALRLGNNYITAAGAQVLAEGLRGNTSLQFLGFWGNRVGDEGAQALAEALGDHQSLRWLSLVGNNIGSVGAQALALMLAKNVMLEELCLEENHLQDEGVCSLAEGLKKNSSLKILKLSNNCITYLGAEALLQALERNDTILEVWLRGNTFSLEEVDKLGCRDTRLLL

Nonstructural protein 1 = Nonstructural protein 1 (Influenza A virus, UniProt Q194T2); format: functional, Influenza A virus (A/California/07/2009(H1N1))
Nonstructural protein 1, sequence (Q194T2 whole entry): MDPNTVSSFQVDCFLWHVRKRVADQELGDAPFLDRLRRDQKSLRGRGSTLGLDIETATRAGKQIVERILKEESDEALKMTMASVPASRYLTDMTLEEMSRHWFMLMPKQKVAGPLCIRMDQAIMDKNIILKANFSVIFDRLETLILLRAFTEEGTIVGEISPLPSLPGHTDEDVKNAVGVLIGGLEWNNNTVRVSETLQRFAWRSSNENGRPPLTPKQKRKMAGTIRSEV

[8] = Vero E6 cell cytotoxicity, dose response, cytotoxicity control for non-replicating M. tuberculosis project, secondary assay (AID 492998); format: functional, VeroE6; details: Vero C1008
cells [9] = format: functional
HEK293 [10] = test: cells; format: functional, cell-based; details: Homo sapiens
cells [11] = format: functional, cell-based
[12] = cytotoxicity toward NIH3T3 fibroblasts, dose response, counter-screen, cell-based, ATP luminescence, mouse fibroblasts (AID 2010); format: functional;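 also: cells exposed to compound for about 90 hours before reading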
[13] = HepG2 cell cytotoxicity, dose response, cytotoxicity control for non-replicating M. tuberculosis project (AID 489018); format: functional; details: Mycobacterium tuberculosis
[14] = molecular target: C-C chemokine receptor type 6 (Homo sapiens, UniProt P51684); test: CCR6 receptor antagonists, dose response, cell-based, luminescent beta-arrestin readout (AID 504728); format: functional
C-C chemokine receptor type 6, sequence (P51684 whole entry): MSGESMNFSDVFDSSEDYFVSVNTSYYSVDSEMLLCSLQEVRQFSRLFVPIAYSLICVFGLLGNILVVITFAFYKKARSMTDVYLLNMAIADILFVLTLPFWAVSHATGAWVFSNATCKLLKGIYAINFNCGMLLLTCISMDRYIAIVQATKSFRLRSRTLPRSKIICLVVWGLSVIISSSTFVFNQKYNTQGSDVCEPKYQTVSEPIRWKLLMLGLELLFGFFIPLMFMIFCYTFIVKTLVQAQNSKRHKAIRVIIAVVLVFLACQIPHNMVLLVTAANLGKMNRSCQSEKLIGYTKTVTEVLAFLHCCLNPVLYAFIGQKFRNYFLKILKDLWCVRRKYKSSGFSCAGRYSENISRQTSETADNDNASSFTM

HEK293 [15] = test: NOD1 signaling inhibitors, primary screen, cell-based, luminescence, uHTS (AID 1578); format: functional; details: Homo sapiens
HEK293 [16] = test: NOD2 signaling inhibitors in MDP-stimulated cells, cell-based, uHTS, luminescence (AID 2001); format: functional; details: Homo sapiens
HEK293 [17] = test: cells; format: functional, cell-based; details: Homo sapiens; remark: listed apart in the source
INS1 [18] = test: beta cell apoptosis inhibitors, cytokine rescue, dose response, luminescence, retest (AID 449756); format: functional, cell-based; details: Rattus norvegicus;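 also: cell death triggered by IL-1 beta plus TNF-alpha plus IFN-gamma mixture; protective hits raise ATP signal compared with cytokine alone wells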
cells [19] = format: functional, cell-based; remark: listed apart in the source
HEK293 [20] = test: cells; format: functional, cell-based; details: Homo sapiens; remark: listed apart in the source

Voltage-gated inwardly rectifying potassium channel KCNH2, sequence (Q12809 whole entry): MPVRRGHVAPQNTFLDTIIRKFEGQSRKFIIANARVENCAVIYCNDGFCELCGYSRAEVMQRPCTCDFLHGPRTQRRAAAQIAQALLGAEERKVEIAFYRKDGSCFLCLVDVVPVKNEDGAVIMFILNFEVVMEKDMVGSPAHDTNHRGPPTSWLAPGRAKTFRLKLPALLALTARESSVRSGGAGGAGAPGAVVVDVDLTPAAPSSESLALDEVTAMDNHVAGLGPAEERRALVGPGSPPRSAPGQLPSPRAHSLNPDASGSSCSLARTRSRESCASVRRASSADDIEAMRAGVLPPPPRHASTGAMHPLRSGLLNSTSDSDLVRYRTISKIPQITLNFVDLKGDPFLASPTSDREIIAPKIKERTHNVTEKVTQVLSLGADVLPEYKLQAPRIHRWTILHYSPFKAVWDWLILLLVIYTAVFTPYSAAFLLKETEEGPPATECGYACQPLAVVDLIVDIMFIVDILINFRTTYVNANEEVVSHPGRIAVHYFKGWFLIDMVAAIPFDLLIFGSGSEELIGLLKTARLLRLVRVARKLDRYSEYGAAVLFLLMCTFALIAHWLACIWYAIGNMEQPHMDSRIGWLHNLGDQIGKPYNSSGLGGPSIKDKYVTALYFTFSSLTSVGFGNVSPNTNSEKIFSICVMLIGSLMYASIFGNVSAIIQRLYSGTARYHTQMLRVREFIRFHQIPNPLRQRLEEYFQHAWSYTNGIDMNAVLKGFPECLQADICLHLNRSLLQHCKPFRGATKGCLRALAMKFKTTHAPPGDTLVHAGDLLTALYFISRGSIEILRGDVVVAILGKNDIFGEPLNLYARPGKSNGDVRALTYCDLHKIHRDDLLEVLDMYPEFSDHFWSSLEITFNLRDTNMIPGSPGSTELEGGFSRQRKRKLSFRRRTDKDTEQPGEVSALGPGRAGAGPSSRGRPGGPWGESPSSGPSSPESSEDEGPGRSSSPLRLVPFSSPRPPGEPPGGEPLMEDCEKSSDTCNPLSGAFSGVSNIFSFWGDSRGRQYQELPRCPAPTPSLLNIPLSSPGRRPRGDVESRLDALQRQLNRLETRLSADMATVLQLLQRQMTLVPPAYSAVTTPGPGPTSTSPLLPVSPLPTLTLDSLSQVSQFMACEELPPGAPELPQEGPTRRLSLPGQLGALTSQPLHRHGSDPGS

For Clc1ccc(C(Cl)(Cl)Cl)c(Cl)c1, the AC50 [1] was 20 µM (inconclusive) and the AC50 (Cytochrome P450 3A4) was 31.6 µM (inconclusive).
With COc1ccc(S(=O)(=O)N(C)C[C@@H]2Oc3c(NC(=O)c4ccncc4)cccc3C(=O)N([C@@H](C)CO)C[C@H]2C)cc1 the AC50 (INS1 [2]) was 32.7 µM (active).
For O=[N+]([O-])c1cc(Cl)cc(/C=N\Nc2ccccn2)c1O, the AC50 [3] was 4.49 µM (active), the AC50 (A-375) was 40.6 µM (active) and the EC50 (Streptokinase A) was 11.1 µM (active). The EC50 [4] was 0.204 µM (active), the EC50 [5] was 3.56 µM (active) and the EC50 (Streptococcus) was 7.53 µM (active). For the same compound, the CC50 [6] was 0.147 µM (active), the IC50 (Beta-galactosidase) was > 66.6 µM (inactive) and the EC50 [7] was > 20 µM (inactive). The IC50 (Nonstructural protein 1) was 3.89 µM (active), the CC50 [8] was 1.24 µM (active) and the IC50 (cells [9]) was 6.12 µM (active). For the same compound, the IC50 (HEK293 [10]) was > 20 µM (inactive), the EC50 (cells [11]) was > 350 µM (not active) and the EC50 [12] was 5.6 µM (active). For the same compound, the CC50 [13] was 0.987 µM (active), the IC50 [14] was > 66.6 µM (inactive) and the EC50 (HEK293 [15]) was 9.12 µM (active). For the same compound, the IC50 (HEK293 [16]) was > 20 µM (inactive), the IC50 (HEK293 [17]) was > 20 µM (inactive) and the AC50 (INS1 [18]) was 0.964 µM (active). For the same compound, the EC50 (cells [19]) was 11.8 µM (active) and the IC50 (HEK293 [20]) was > 20 µM (inactive).
